Data on 3 compounds can be found in patent US5494804A, “Differential determination process of α-amylase isoenzyme activities” (Kikkoman Corporation, priority 1993, dated 1996).

Test [1] deals with T1, human P-type α-amylase (Homo sapiens, UniProt P04746).
T1 construct: purchased International Reagents Corp., Japan CARIBZYME AMY
T1 sequence (P04746 16-511): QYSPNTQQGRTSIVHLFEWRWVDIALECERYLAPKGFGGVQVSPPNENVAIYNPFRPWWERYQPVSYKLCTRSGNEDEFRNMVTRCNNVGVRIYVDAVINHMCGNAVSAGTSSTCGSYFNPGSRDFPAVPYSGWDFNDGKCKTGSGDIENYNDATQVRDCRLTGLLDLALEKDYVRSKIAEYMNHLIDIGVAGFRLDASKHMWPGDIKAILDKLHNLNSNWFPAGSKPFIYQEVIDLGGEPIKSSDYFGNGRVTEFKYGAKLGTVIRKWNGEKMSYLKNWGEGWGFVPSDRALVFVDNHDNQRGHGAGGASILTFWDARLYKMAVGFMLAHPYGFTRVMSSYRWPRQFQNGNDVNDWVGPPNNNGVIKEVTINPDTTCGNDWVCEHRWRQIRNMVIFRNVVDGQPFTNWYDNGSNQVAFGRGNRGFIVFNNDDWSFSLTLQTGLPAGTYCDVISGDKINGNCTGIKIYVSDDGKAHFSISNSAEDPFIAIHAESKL
The test can be described thus: Inhibition of human P-type α-amylase by an inhibitor (variable absorbance at 400 nm, chromogenic substrate, coupled enzymes). The format is biochemical. As for the experimental part:
(§1) (a) Preparation of a mixed solution of the substrate (N3G5-CNP) and the inhibitor DOG3
(§2) N3G5-CNP and DOG3 obtained in Informative Example 2 were dissolved in a 50 mM phosphate buffer (pH 7.0) containing 40 mM NaCl and 2 mM MgCl2 so that the N3G5-CNP has a concentration of 3.25 mM (final concentration of 2.0 mM) and DOG3 has seven concentrations of 0.05, 0.11, 0.54, 1.09, 2.16, 3.25, 5.41 mM (final concentrations of 0.03, 0.07, 0.33, 0.67, 1.33, 2.00 and 3.33 mM, respectively).
(§3) The commercially available human P-type α-amylase and human S-type α-amylase were dissolved in distilled water so that they have a concentration of about 150 IU/liter.
(§4) It was prepared in the same manner as described in (b) in the section (1).
(§5) After 250 μl of the α-amylase solution was admixed with 1.0 ml of the coupled enzyme solution and warmed to 37° C. for 1 minute, 2.0 ml of each of the mixtures (having 7 concentration) of the substrate (N3G5-CNP) and the inhibitor DOG3 was added, stirred and warmed to 37° C. for 2.5 minutes, and the variable absorbance in each sample at 400 nm was measured for 2 minutes.
(§6) The activities of human P-type α-amylase and human S-type α-amylase containing 0 mM of DOG3 (without DOG3) were regarded as 100% and the relative activities of human P-type α-amylase and human S-type α-amylase in different concentrations of DOG3 were obtained from each determined value as mentioned above. In this connection, a open circle means P-type α-amylase and a closed circle means S-type α-amylase. […]
(§7) On the other hand, procedures were carried out in the same manner as described above except that 1.0 ml of the coupled enzyme solution alone was used on behalf of the mixed solution in (c) to obtain the value of T with this method.
(§8) The values of kp, ks, a and b in the wheat-germ inhibitor method were 1.1×10^-3, 1.1×10^-3, 0,262 and 0.726 as a result of the measurement. These values as well as those of T and W obtained in this method were substituted for the equations (3) and (4) to obtain the values of P and S (IU/liter). […]

Test [2] has as its target T2, human S-type α-amylase (Homo sapiens, UniProt P0DUB6).
T2 construct: purchased International Reagents Corp., Japan CARIBZYME AMY
T2 sequence (P0DUB6 16-511): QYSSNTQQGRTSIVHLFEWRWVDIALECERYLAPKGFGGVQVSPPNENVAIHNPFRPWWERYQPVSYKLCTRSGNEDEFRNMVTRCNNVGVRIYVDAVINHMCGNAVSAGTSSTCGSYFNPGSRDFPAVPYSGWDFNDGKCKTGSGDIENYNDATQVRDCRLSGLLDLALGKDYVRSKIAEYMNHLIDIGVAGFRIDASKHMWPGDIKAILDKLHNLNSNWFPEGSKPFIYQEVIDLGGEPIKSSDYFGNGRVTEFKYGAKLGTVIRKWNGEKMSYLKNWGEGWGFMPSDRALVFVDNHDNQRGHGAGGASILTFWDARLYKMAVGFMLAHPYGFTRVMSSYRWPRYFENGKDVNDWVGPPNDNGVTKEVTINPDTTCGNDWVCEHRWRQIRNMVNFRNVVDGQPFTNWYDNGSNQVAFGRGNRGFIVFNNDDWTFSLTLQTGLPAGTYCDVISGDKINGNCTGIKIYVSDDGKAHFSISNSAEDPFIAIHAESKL
The test can be described thus: Inhibition of human S-type α-amylase by an inhibitor (variable absorbance at 400 nm, chromogenic substrate, coupled enzymes). The format is biochemical. As for the experimental part:
as §1, §2, §3, §4, §5, §6, §7, §8

For test [3], the target named is T2, human S-type α-amylase. Briefly: Km and reaction rate constant ks of the substrate for measuring α-amylase activity, S-type. The format is biochemical. As for the experimental part: (§9) In a 50 mM phosphate buffer (pH 7.0) containing 40 mM NaCl and 2 mM MgCl2 was dissolved N3G5-CNP obtained in Informative Example 1 to prepare substrate solutions for measuring α-amylase activity in a concentration of 0.16, 0.32, 0.48, 0.64, 0.80 and 0.96 mM.
(§10) A commercially available glucoamylase derived from Rhizopus sp. and β-glucosidase derived from almond were mixed and dissolved in a 50 mM phosphate buffer (pH 7.0) containing 40 mM NaCl and 2 mM MgCl2 to the concentration of the glucoamylase and β-glucosidase being 163 units/ml and 16.3 units/ml, respectively. In this connection, these commercially available glucoamylase and β-glucosidase used were manufactured by Toyobo Co., Ltd.
(§11) Each of commercially available human P-type α-amylase and human S-type α-amylase was dissolved in distilled water to ensure that the concentration of each amylase was about 150 IU/liter.
The commercially available human α-amylases used were CARIBZYME AMY manufactured by International Reagents Corp., Japan.
The molecular extinction coefficient (ε) of 2-chloro-4-nitrophenol is defined 16,100 and for α-amylase activity the amount of enzyme which decomposes 1 μmol of G5-CNP at 37° C. for a minute is defined as 1 International Unit (IU) (and so forth).
(§12) As for the human P-type α-amylase solution and human S-type α-amylase solution, 1.0 ml of a coupled enzyme solution was added to and stirred with 250 μl of the α-amylase solution, warmed to 37° C. for 1 minute, and 2.0 ml of each concentration of the N3G5-CNP solution was added and stirred, warmed to 37° C. for 2.5 minutes to measure the variable absorbances at 400 nm for 2 minutes. […]
For six solutions of each of the human P-type α-amylase and the human S-type α-amylase, 1.0 ml of the coupled enzyme solution was added to and stirred with 250 μl of the α-amylase solution and warmed to 37° C. for 1 minute, respectively. 2.0 ml of N3G5-CNP solution was added and stirred, and the mixture was warmed to 37° C. for 2.5 minutes to measure the variable absorbances at 400 nm for 2 minutes. […]

The test system of the next test is α-amylase. The test can be described thus: Km value of G5-CNP (isoenzyme not stated). The conditions noted are these: α-glucosidase instead of glucoamylase as coupled enzyme. The format is biochemical, human. As for the experimental part:
As for the human P-type α-amylase solution and human S-type α-amylase solution, 1.0 ml of a coupled enzyme solution was added to and stirred with 250 μl of the α-amylase solution, warmed to 37° C. for 1 minute, and 2.0 ml of each concentration of the N3G5-CNP solution was added and stirred, warmed to 37° C. for 2.5 minutes to measure the variable absorbances at 400 nm for 2 minutes. At the same time, a blank test was carried out with 250 μl of distilled water instead of the α-amylase solution. The measurements thus obtained were plotted by the Lineweaver-Burk method to calculate the Km value by the method of least squares.
The Km value and the reaction rate constants (kp and ks) of G5-CNP and the inhibition constants a and b of DOG3 were measured in the same manner as in Example 1 except that a commercially available G5-CNP [manufactured by Daiichi Pure Chemicals Co., Ltd.] on behalf of N3G5-CNP as the substrate for measuring α-amylase was used and 406 units/liter of α-glucosidase [manufactured by Toyobo Co., Ltd.] was used on behalf of glucoamylase as a coupled enzyme.

Test [4] addresses T1, human P-type α-amylase. The test can be described thus: Km and reaction rate constant kp of the substrate for measuring α-amylase activity, P-type. The format is biochemical. As to the method: as §9, §10, §11
The commercially available human α-amylases used were CARIBZYME AMY manufactured by International Reagents Corp., Japan. […]
as §12

The mark [5] stands for this setting: α-glucosidase instead of glucoamylase as coupled enzyme.
The mark [6] stands for this setting: substrate final concentration 2.0 mM, 37° C., inclination of absorbance versus activity line, glucoamylase and β-glucosidase.

As usually defined, the inhibition is how much of the control response was suppressed. One may read the Km as the substrate concentration at which the rate is half of its maximum.

For `C[C@H]1O[C@H](O[C@H]2[C@H](O)[C@@H](O)[C@@H](O[C@H]3[C@H](O)[C@@H](O)C(O)O[C@@H]3CO)O[C@@H]2CO)[C@H](O)[C@@H](O)[C@@H]1O` (stereo partly drawn) [DOG3, O-6-deoxy-α-D-glucopyranosyl-(1→4)-O-α-D-glucopyranosyl-(1→4)-D-glucose], the activity at 330 µM at human P-type α-amylase [1] (DOG3 0.33 mM final, substrate N3G5-CNP 2.0 mM final, 37° C., pH 7.0, read-out: relative activity of human P-type α-amylase (without DOG3 = 100%)) turned out to be 13.1%; at human S-type α-amylase [2] (DOG3 0.33 mM final, substrate N3G5-CNP 2.0 mM final, 37° C., pH 7.0, read-out: relative activity of human S-type α-amylase (without DOG3 = 100%)) it was 67.9%. In addition, the “difference of the relative activities of P-type and S-type α-amylases (maximum)” value on human P-type α-amylase [1] (DOG3 0.33 mM, substrate N3G5-CNP, S-type minus P-type, as fraction) came to 0.548. Besides, the inhibition at 500 µM at human P-type α-amylase [1] (DOG3 0.50 mM, substrate G5-CNP, α-glucosidase and β-glucosidase as coupled enzymes, read-out: inhibition constant a (to P-type α-amylase)) was 61.7%; on human S-type α-amylase [2] (DOG3 0.50 mM, substrate G5-CNP, α-glucosidase and β-glucosidase as coupled enzymes, read-out: inhibition constant b (to S-type α-amylase)), 14.1%. Also, the inhibition at 330 µM on human P-type α-amylase [1] (pH 7, DOG3 0.33 mM, substrate N3G5-CNP 2.0 mM, read-out: inhibition constant a (to P-type α-amylase) = 1 - relative activity) was 86.9%; at human S-type α-amylase [2] (pH 7, DOG3 0.33 mM, substrate N3G5-CNP 2.0 mM, read-out: inhibition constant b (to S-type α-amylase) = 1 - relative activity), 32.1%.

Regarding `O=[N+]([O-])c1ccc(O[C@@H]2O[C@H](CO)[C@@H](O[C@H]3O[C@H](CO)[C@@H](O[C@H]4O[C@H](CO)[C@@H](O[C@H]5O[C@H](CO)[C@@H](O[C@H]6O[C@H](CO)[C@@H](O)[C@H](O)[C@H]6O)[C@H](O)[C@H]5O)[C@H](O)[C@H]4O)[C@H](O)[C@H]3O)[C@H](O)[C@H]2O)c(Cl)c1` [G5-CNP, 2-chloro-4-nitrophenyl β-D-maltopentaoside, reference compound], the “reaction rate constant ks” value on human S-type α-amylase [3] (setting [5]) is 1.2×10^-3. The Michaelis constant (Km) with α-amylase was determined as 450 µM. Besides, at human P-type α-amylase [4] (setting [5]), the “reaction rate constant kp” value is 1.2×10^-3.

Turning to `[N-]=[N+]=NC[C@H]1O[C@H](O[C@H]2[C@H](O)[C@@H](O)[C@@H](O[C@H]3[C@H](O)[C@@H](O)[C@@H](O[C@H]4[C@H](O)[C@@H](O)[C@@H](O[C@H]5[C@H](O)[C@@H](O)[C@H](Oc6ccc([N+](=O)[O-])cc6Cl)O[C@@H]5CO)O[C@@H]4CO)O[C@@H]3CO)O[C@@H]2CO)[C@H](O)[C@@H](O)[C@@H]1O` [N3G5-CNP, 2-chloro-4-nitro-phenyl 6^5-azido-6^5-deoxy-β-D-maltopentaoside], the Km on human S-type α-amylase [3] (Lineweaver-Burk, 37° C., pH 7.0, glucoamylase and β-glucosidase as coupled enzymes) turned out to be 270 µM. For the same compound, the “reaction rate constant ks” value at human S-type α-amylase [3] (setting [6]) is recorded as 1.1×10^-3. The “reaction rate constant kp” value at human P-type α-amylase [4] (setting [6]) is recorded as 1.1×10^-3.
